Results as given in US20260022142A1, “MACROCYCLIC IMMUNOMODULATORS” (Bristol-Myers Squibb Company, priority 2022, published 2026).
Bridge positions count the residues as written; N and C are the ends. Square brackets hold non-standard residues; d marks the D form. Peptide text beside a SMILES is read from it. * marks the point of attachment. ξ: configuration not given here. Phe(4-COOH) = N[C@@H](Cc1ccc(C(=O)O)cc1)C(=O)O; Bip = N[C@@H](Cc1ccc(-c2ccccc2)cc1)C(=O)O; NH(CH2)14COOH = O=C(O)CCCCCCCCCCCCCCN*; Phe(3-Me) = Cc1cccc(C[C@H](N)C(=O)O)c1; Val(3-OH) = CC(C)(O)[C@H](N)C(=O)O; 4Pal = N[C@@H](Cc1ccncc1)C(=O)O; Cha = N[C@@H](CC1CCCCC1)C(=O)O; Cit = NC(=O)NCCC[C@H](N)C(=O)O; Carboxymethyl = O=C(O)C*; Orn = NCCC[C@H](N)C(=O)O; Aun = NCCCCCCCCCCC(=O)O; Dab = NCC[C@H](N)C(=O)O; Dap = NC[C@H](N)C(=O)O; AEEA = NCCOCCOCC(=O)O; ξV = CC(C)C(N)C(=O)O; Propargyl = C#CC*

Target: T1, PD-1/PD-L1 interaction (PE-labeled human PD-L1-Ig binding to Jurkat cell line over-expressing human PD-1) (Homo sapiens, UniProt Q15116)
T1 construct: expressed in transfected cells; host or cells: Jurkat
Assay: Jurkat-PD-1 Cell Binding High-Content Screening Assay (CBA)
Assay type: cell-based
Settings: Jurkat cell line over-expressing human PD-1; PE-labeled PD-L1-Ig 20 nM final; read-out: Jurkat hPD1-PDL1 IC50
Method in brief: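 Read-out is high-content imaging of cell-bound phycoerythrin-tagged PD-L1-Ig on fixed, Hoechst-counterstained Jurkat cells that over-express human PD-1. Compound exposure lasts 2 h at 37° C before the labeled ligand (20 nM final) is added for a further hour.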

T1 sequence (Q15116 25-288): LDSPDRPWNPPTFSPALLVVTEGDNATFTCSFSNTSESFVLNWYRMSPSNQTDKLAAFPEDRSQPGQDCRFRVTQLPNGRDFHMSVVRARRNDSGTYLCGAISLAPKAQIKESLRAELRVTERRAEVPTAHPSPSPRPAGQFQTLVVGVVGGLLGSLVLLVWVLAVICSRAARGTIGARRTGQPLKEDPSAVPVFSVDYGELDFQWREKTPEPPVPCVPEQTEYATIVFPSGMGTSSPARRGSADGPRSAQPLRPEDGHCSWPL

SMILES	IC50 [µM]
CC(C)C[C@@H]1NC(=O)[C@H](Cc2c[nH]c3ccccc23)NC(=O)[C@H](CC(=O)O)NC(=O)[C@H](Cc2ccc(C(=O)O)cc2)NC(=O)[C@H](Cc2ccc(OCC(=O)O)cc2)NC(=O)CSC[C@@H](C(=O)NCCOCCOCC(=O)NCCCCCCCCCCC(=O)O)NC(=O)[C@H](CCCCN)NC(=O)[C@H](C(C)C)NC(=O)[C@H](CC2CCCCC2)NC(=O)[C@H](CCN)NC(=O)[C@@H](CC(C)C)NC(=O)[C@H](CCCN)NC(=O)[C@H](Cc2ccc(O)cc2)NC(=O)[C@H](Cc2ccc(-c3ccccc3)cc2)NC1=O [Compound 1241] ({CH2CO}-Y(Carboxymethyl)[Phe(4-COOH)]DWL[Bip]Y[Orn][dL][Dab][Cha]VKC[AEEA][Aun]-OH; thioether N-14)	0.0184
CC(C)C[C@@H]1NC(=O)[C@H](Cc2c[nH]c3ccccc23)NC(=O)[C@H](CC(=O)O)NC(=O)[C@H](Cc2ccc(C(=O)O)cc2)NC(=O)[C@H](Cc2ccc(OCC(=O)O)cc2)NC(=O)CSC[C@@H](C(=O)NCCOCCOCC(=O)NCCCCCCCCCCC(=O)O)NC(=O)[C@H](CCCNC(=N)N)NC(=O)[C@H](C(C)C)NC(=O)[C@H](CC2CCCCC2)NC(=O)[C@H](CCN)NC(=O)[C@@H](CC(C)C)NC(=O)[C@H](CCCN)NC(=O)[C@H](Cc2ccc(O)cc2)NC(=O)[C@H](Cc2ccc(-c3ccccc3)cc2)NC1=O [Compound 1242] ({CH2CO}-Y(Carboxymethyl)[Phe(4-COOH)]DWL[Bip]Y[Orn][dL][Dab][Cha]VRC[AEEA][Aun]-OH; thioether N-14)	0.0333
CC(C)C[C@H]1NC(=O)[C@H](CCCN)NC(=O)[C@H](Cc2ccc(O)cc2)NC(=O)[C@H](Cc2ccc(-c3ccccc3)cc2)NC(=O)[C@H](C(C)C)NC(=O)[C@H](Cc2c[nH]c3ccccc23)NC(=O)[C@H](CC(=O)O)NC(=O)[C@H](Cc2ccc(C(=O)O)cc2)NC(=O)[C@H](Cc2ccc(OCC(=O)O)cc2)NC(=O)CSC[C@@H](C(=O)NCCOCCOCC(=O)NCCCCCCCCCCC(=O)O)NC(=O)[C@H](CCCNC(N)=O)NC(=O)C(C(C)C)NC(=O)[C@H](CC2CCCCC2)NC(=O)[C@H](CCN)NC1=O (stereo partly drawn) [Compound 1243] ({CH2CO}-Y(Carboxymethyl)[Phe(4-COOH)]DWV[Bip]Y[Orn][dL][Dab][Cha][ξV][Cit]C[AEEA][Aun]-OH; thioether N-14)	0.0117
Cc1cccc(C[C@@H]2NC(=O)[C@H](CC(=O)O)NC(=O)[C@H](Cc3ccc(OCC(=O)O)cc3)NC(=O)[C@H](CN)NC(=O)CSC[C@@H](C(=O)N[C@@H](CCN)C(=O)NCCCCCCCCCCC(=O)O)NC(=O)[C@H](CCC(N)=O)NC(=O)[C@H](C(C)C)NC(=O)[C@H](CC3CCCCC3)NC(=O)[C@H](CCN)NC(=O)[C@@H](CC(C)C)NC(=O)[C@H](CCCN)NC(=O)[C@H](CCCNC(N)=O)NC(=O)[C@H](Cc3ccc(-c4ccccc4)cc3)NC(=O)[C@H](C(C)C)NC2=O)c1 [Compound 1244] ({CH2CO}-[Dap]Y(Carboxymethyl)D[Phe(3-Me)]V[Bip][Cit][Orn][dL][Dab][Cha]VQC[Dab][Aun]-OH; thioether N-14)	0.0162
Cc1cccc(C[C@@H]2NC(=O)[C@H](CC(=O)O)NC(=O)[C@H](Cc3ccc(OCC(=O)O)cc3)NC(=O)[C@H](CN)NC(=O)CSC[C@@H](C(=O)N[C@@H](CCN)C(=O)NCCCCCCCCCCC(=O)O)NC(=O)[C@H](CCC(=O)O)NC(=O)[C@H](C(C)C)NC(=O)[C@H](CC3CCCCC3)NC(=O)[C@H](CCN)NC(=O)[C@@H](CC(C)C)NC(=O)[C@H](CCCN)NC(=O)[C@H](Cc3ccc(OCC(=O)O)cc3)NC(=O)[C@H](Cc3ccc(-c4ccccc4)cc3)NC(=O)[C@H](Cc3ccc(OCC(=O)O)cc3)NC2=O)c1 [Compound 1245] ({CH2CO}-[Dap]Y(Carboxymethyl)D[Phe(3-Me)]Y(Carboxymethyl)[Bip]Y(Carboxymethyl)[Orn][dL][Dab][Cha]VEC[Dab][Aun]-OH; thioether N-14)	0.0351
Cc1cccc(C[C@@H]2NC(=O)[C@H](CC(=O)O)NC(=O)[C@H](Cc3ccc(OCC(=O)O)cc3)NC(=O)[C@H](CN)NC(=O)CSC[C@@H](C(=O)N[C@@H](CCN)C(=O)NCCCCCCCCCCC(=O)O)NC(=O)[C@H](CCC(N)=O)NC(=O)[C@H](C(C)C)NC(=O)[C@H](CC3CCCCC3)NC(=O)[C@H](CCN)NC(=O)[C@@H](CC(C)C)NC(=O)[C@H](CCCN)NC(=O)[C@H](Cc3ccc(OCC(=O)O)cc3)NC(=O)[C@H](Cc3ccc(-c4ccccc4)cc3)NC(=O)[C@H](Cc3ccc(OCC(=O)O)cc3)NC2=O)c1 [Compound 1247] ({CH2CO}-[Dap]Y(Carboxymethyl)D[Phe(3-Me)]Y(Carboxymethyl)[Bip]Y(Carboxymethyl)[Orn][dL][Dab][Cha]VQC[Dab][Aun]-OH; thioether N-14)	0.0176
C#CCOc1ccc(C[C@@H]2NC(=O)[C@H](C(C)C)NC(=O)[C@H](CC3CCCCC3)NC(=O)[C@H](CCN)NC(=O)[C@@H](CC(C)C)NC(=O)[C@H](CCCN)NC(=O)[C@H](Cc3ccc(OCC(=O)O)cc3)NC(=O)[C@H](Cc3ccc(-c4ccccc4)cc3)NC(=O)[C@H](Cc3ccc(OCC(=O)O)cc3)NC(=O)[C@H](Cc3cccc(C)c3)NC(=O)[C@H](CC(=O)O)NC(=O)[C@H](Cc3ccc(OCC(=O)O)cc3)NC(=O)[C@H](CN)NC(=O)CSC[C@@H](C(=O)N[C@@H](CCN)C(=O)NCCCCCCCCCCC(=O)O)NC2=O)cc1 [Compound 1248] ({CH2CO}-[Dap]Y(Carboxymethyl)D[Phe(3-Me)]Y(Carboxymethyl)[Bip]Y(Carboxymethyl)[Orn][dL][Dab][Cha]VY(Propargyl)C[Dab][Aun]-OH; thioether N-14)	0.367
C#CCOc1ccc(C[C@@H]2NC(=O)[C@H](C(C)C)NC(=O)[C@H](CC3CCCCC3)NC(=O)[C@H](CCN)NC(=O)[C@@H](CC(C)C)NC(=O)[C@H](CCCN)NC(=O)[C@H](Cc3ccc(OCC(=O)O)cc3)NC(=O)[C@H](Cc3ccc(-c4ccccc4)cc3)NC(=O)[C@H](Cc3ccc(OCC(=O)O)cc3)NC(=O)[C@H](Cc3cccc(C)c3)NC(=O)[C@H](CC(=O)O)NC(=O)[C@H](Cc3ccncc3)NC(=O)[C@H](Cc3ccc(OCC(=O)O)cc3)NC(=O)CSC[C@@H](C(=O)N[C@@H](CCN)C(=O)NCCCCCCCCCCC(=O)O)NC2=O)cc1 [Compound 1249] ({CH2CO}-Y(Carboxymethyl)[4Pal]D[Phe(3-Me)]Y(Carboxymethyl)[Bip]Y(Carboxymethyl)[Orn][dL][Dab][Cha]VY(Propargyl)C[Dab][Aun]-OH; thioether N-14)	0.0817
C#CCOC[C@@H]1NC(=O)[C@H](C(C)C)NC(=O)[C@H](CC2CCCCC2)NC(=O)[C@H](CCN)NC(=O)[C@@H](CC(C)C)NC(=O)[C@H](CCCN)NC(=O)[C@H](Cc2ccc(OCC(=O)O)cc2)NC(=O)[C@H](Cc2ccc(-c3ccccc3)cc2)NC(=O)[C@H](Cc2ccc(OCC(=O)O)cc2)NC(=O)[C@H](Cc2cccc(C)c2)NC(=O)[C@H](CC(=O)O)NC(=O)[C@H](Cc2ccncc2)NC(=O)[C@H](Cc2ccc(OCC(=O)O)cc2)NC(=O)CSC[C@@H](C(=O)N[C@@H](CCN)C(=O)NCCCCCCCCCCC(=O)O)NC1=O [Compound 1250] ({CH2CO}-Y(Carboxymethyl)[4Pal]D[Phe(3-Me)]Y(Carboxymethyl)[Bip]Y(Carboxymethyl)[Orn][dL][Dab][Cha]VS(Propargyl)C[Dab][Aun]-OH; thioether N-14)	0.0404
C#CCOc1ccc(C[C@@H]2NC(=O)[C@H](C(C)C)NC(=O)[C@H](CC3CCCCC3)NC(=O)[C@H](CCN)NC(=O)[C@@H](CC(C)C)NC(=O)[C@H](CCCN)NC(=O)[C@H](Cc3ccc(OCC(=O)O)cc3)NC(=O)[C@H](Cc3ccc(-c4ccccc4)cc3)NC(=O)[C@H](Cc3ccc(OCC(=O)O)cc3)NC(=O)[C@H](Cc3cccc(C)c3)NC(=O)[C@H](CC(=O)O)NC(=O)[C@H](Cc3ccc(OCC(=O)O)cc3)NC(=O)[C@H](CN)NC(=O)CSC[C@@H](C(=O)N[C@@H](CCN)C(=O)NCCOCCOCC(=O)NCCCCCCCCCCC(=O)O)NC2=O)cc1 [Compound 1251] ({CH2CO}-[Dap]Y(Carboxymethyl)D[Phe(3-Me)]Y(Carboxymethyl)[Bip]Y(Carboxymethyl)[Orn][dL][Dab][Cha]VY(Propargyl)C[Dab][AEEA][Aun]-OH; thioether N-14)	0.038
Cc1cccc(C[C@@H]2NC(=O)[C@H](CC(=O)O)NC(=O)[C@H](Cc3ccc(OCC(=O)O)cc3)NC(=O)[C@H](CCN)NC(=O)CSC[C@@H](C(=O)N[C@@H](CCN)C(=O)NCCOCCOCC(=O)NCCOCCOCC(=O)N[C@@H](CC(=O)NCCCCCCCCCCCCCCC(=O)O)C(=O)O)NC(=O)[C@H](Cc3c[nH]cn3)NC(=O)[C@H](C(C)(C)O)NC(=O)[C@H](CC3CCCCC3)NC(=O)[C@H](CCN)NC(=O)[C@@H](CC(C)C)NC(=O)[C@H](CCCN)NC(=O)[C@H](Cc3ccc(C(=O)O)cc3)NC(=O)[C@H](Cc3ccc(-c4ccccc4)cc3)NC(=O)[C@H](Cc3ccc(C(=O)O)cc3)NC2=O)c1 [Compound 1252] ({CH2CO}-[Dab]Y(Carboxymethyl)D[Phe(3-Me)][Phe(4-COOH)][Bip][Phe(4-COOH)][Orn][dL][Dab][Cha][Val(3-OH)]HC[Dab][AEEA][AEEA]D(NH(CH2)14COOH)-OH; thioether N-14)	0.0415
Cc1cccc(C[C@@H]2NC(=O)[C@H](CC(=O)O)NC(=O)[C@H](Cc3ccc(OCC(=O)O)cc3)NC(=O)[C@H](CCN)NC(=O)CSC[C@@H](C(=O)N[C@@H](CCN)C(=O)NCCOCCOCC(=O)NCCOCCOCC(=O)N[C@@H](CCC(=O)NCCCCCCCCCCCCCCC(=O)O)C(=O)O)NC(=O)[C@H](Cc3cnc[nH]3)NC(=O)[C@H](C(C)(C)O)NC(=O)[C@H](CC3CCCCC3)NC(=O)[C@H](CCN)NC(=O)[C@@H](CC(C)C)NC(=O)[C@H](CCCN)NC(=O)[C@H](Cc3ccc(C(=O)O)cc3)NC(=O)[C@H](Cc3ccc(-c4ccccc4)cc3)NC(=O)[C@H](Cc3ccc(C(=O)O)cc3)NC2=O)c1 [Compound 1253] ({CH2CO}-[Dab]Y(Carboxymethyl)D[Phe(3-Me)][Phe(4-COOH)][Bip][Phe(4-COOH)][Orn][dL][Dab][Cha][Val(3-OH)]HC[Dab][AEEA][AEEA]E(NH(CH2)14COOH)-OH; thioether N-14)	0.0311
